Test results as given in patent publication US11027021B2, “Combinations of PBD-based antibody drug conjugates with Bcl-2 inhibitors” (Seagen Inc., priority 2016, dated 2021).

What was measured:
MOLM-13 cells = assay: MOLM-13 subcutaneous xenograft survival experiment; assay type: in vivo; details: ABT-199 alone 100 mg/kg daily by oral gavage for 14 days; MOLM-13 xenograft, SCID mice
Description: (§1) Tumor growth was monitored throughout the course of the study with bilateral vernier caliper measurements, and mean tumor volumes were calculated using the equation (0.5×[length×width^2]). […] Mice with advanced tumor burden were sacrificed upon reaching tumor volumes of greater than 400 mm^3 or showing symptoms of hind limb paralysis, cranial swelling, and/or moribundity.

RL cells = assay: RL subcutaneous xenograft survival experiment; assay type: in vivo; details: ABT-199 alone 100 mg/kg daily by oral gavage for 14 days, SCID mice
Description: as §1

## CC1(C)CCC(CN2CCN(c3ccc(C(=O)NS(=O)(=O)c4ccc(NCC5CCOCC5)c([N+](=O)[O-])c4)c(Oc4cnc5[nH]ccc5c4)c3)CC2)=C(c2ccc(Cl)cc2)C1 [ABT-199, 2-(1H-pyrrolo[2,3-b]pyridin-5-yloxy)-4-(4-((2-(4-chlorophenyl)-4,4-dimethylcyclohex-1-enyl)methyl)piperazin-1-yl)-N-(3-nitro-4-(((tetrahydro-2H-pyran-4-yl)methyl)amino)phenylsulfonyl)benzamide]
MOLM-13 cells
  rate of survival by day 20: 0%
RL cells
  rate of survival by day 30: 0%
